In PMC11545984, “1,3-Dipolar Cycloaddition of Nitrile Oxides and Nitrilimines to (−)-β-Caryophyllene: Stereoselective Synthesis of Polycyclic Derivatives and Their Biological Testing” (International Journal of Molecular Sciences, 2024):
Read-outs that look alike come from different tables or passages of the source.

Tests used:
MDCK cells = experiment: Cytotoxicity in MDCK cells (MTT, CC50); settings: uninfected MDCK cells, 48 h
[1] = tested on: influenza virus A/Puerto Rico/8/34 (H1N1); experiment: Antiviral (cytoprotective) activity in MDCK cells, MTT; format: cell-based
[2] = Initial cytotoxicity testing (MTT test), HEK293; format: cell-based, human; settings: human healthy cells, MTT, 72 h, two concentrations 50–100 µM
Protocol: (§1) Colon cancer (HCT116, HT29), breast cancer (MCF7, SKBR3), melanoma (SK-MEL28), lung cancer (A549), prostate cancer (DU145), human normal cells (VA-13 and HEK293), and murine mammary cell lines (EMT6) were purchased from ATCC (Manassas, VA, USA). Cells were routinely grown in RPMI 1640 culture medium, supplemented with 10% fetal bovine serum, glutamine, and 100 U/mL penicillin. HCT116, HT29, MCF7, SKBR3, SK-MEL28, A549, DU145, VA-13, HEK293, and EMT6 cells were grown in flasks in RPMI 1640 fresh culture medium with supplements at 37 °C and 5% CO2. Cells were grown as monolayer cultures, and the cells in the exponential growth phase were trypsinized and suspended in the supplemented RPMI 1640 medium.
(§2) To evaluate the cytotoxicity of the compounds, we placed cells in (20–30) × 10^3 cells/mL concentrations in 96-well culture plates for 24 h. Cells were counted after treatment with Trypan blue solution (0.4%). They were then exposed to two different concentrations of compounds 16–30 (50–100 µM) dilutions in pre-incubated cells at 37 °C for 72 h. In control wells with untreated cells, only (DMSO + PBS) was added. Cell viability was measured by the standard MTT test. The stock solutions of each compound were prepared in DMSO following by preparation of serial dilutions in PBS.
(§3) The absorbance was measured at 540 nm using a Multiskan™ FC microplate photometer and the Skanlt software 6.1 RE for microplate reader, both from Thermo Scientific (Waltham, MA, USA). Experiments were carried out in triplicate; to perform the statistical analysis, more concentrations should be evaluated.

A549 = experiment: Initial cytotoxicity testing (MTT test), A549; format: cell-based, human; settings: Homo sapiens, A549, 72 h, read-out: cytotoxicity A549
Protocol: as §1, §2, §3

DU145 = experiment: Initial cytotoxicity testing (MTT test), DU145; format: cell-based, human; settings: Homo sapiens, DU-145, 72 h, read-out: cytotoxicity DU145
Protocol: as §1, §2, §3

[3] = Initial cytotoxicity testing (MTT test), VA-13; format: cell-based, human; settings: human healthy cells, MTT, 72 h, two concentrations 50–100 µM
Protocol: as §1, §2, §3

in vitro = settings: dog
[4] = tested on: DU145, A549, VA-13, HEK293, EMT6; experiment: Initial cytotoxicity testing (MTT test), all cell lines together; format: cell-based; settings: after 72 h, read-out: IC50 on all cells
Protocol: as §1, §2, §3

HEK293 = experiment: Initial cytotoxicity testing (MTT test), HEK293; format: cell-based, human; settings: Homo sapiens, HEK293; normal cells, initial testing
Protocol: as §1, §2, §3

VA-13 = experiment: Initial cytotoxicity testing (MTT test), VA-13; format: cell-based, human; settings: Homo sapiens, VA-13; normal cells, initial testing
Protocol: as §1, §2, §3

[5] = H1N1, infected MDCK cells, m.o.i. 0.01, 48 h, 50% cell protection, read-out: IC50

| SMILES | CC50 (MDCK cells) [µM] | IC50 [1, 5] [µM] | IC50 at 72 h [2] [µM] | IC50 (A549) [µM] | IC50 (DU145) [µM] | IC50 at 72 h [3] [µM] | CC50 at 48 h (in vitro) [µM] | IC50 [4] [µM] | IC50 (HEK293) [µM] | IC50 (VA-13) [µM] | IC50 ([1]; H1N1, MDCK, 48 h) [µM] |
| --- | --- | --- | --- | --- | --- | --- | --- | --- | --- | --- | --- |
| NC12CC3CC(CC(C3)C1)C2 [Amantadine, reference compound] | 284 ± 21 | 64 ± 5 |  |  |  |  |  |  |  |  |  |
| C/C1=C\CC[C@@]2(CC(c3ccc(Cl)cc3)=NO2)[C@H]2CC(C)(C)[C@@H]2CC1 [Compound 16a, (1S,2R,9R,E)-3′-(4-Chlorophenyl)-6,10,10-trimethyl-4′H-spiro[bicyclo [7.2.0]undecane-2,5′-isoxazol]-5-ene] |  | 9.8 ± 1.3 | > 50 | > 50 | > 50 | > 50 | 125 ± 6.5 |  |  |  |  |
| C=C1CC[C@@H]2C(c3ccc(Cl)cc3)=NO[C@@]2(C)CC[C@@H]2[C@@H]1CC2(C)C [Compound 16b, (3aR,6aS,8aR,10aS)-3-(4-chlorophenyl)-8,8,10a-trimethyl-6-methylene-3a,5,6,6a,7,8,8a,9,10,10a-decahydro-4H-cyclobuta [5,6]cyclonona [1,2-d]isoxazole] |  | 16.8 ± 2.2 | > 50 | > 50 | > 50 | > 50 | 20.2 ± 1.9 |  |  |  |  |
| C=C1CC[C@@H]2C(c3ccc(OC)cc3)=NO[C@@]2(C)CC[C@@H]2[C@@H]1CC2(C)C [Compound 17b, (3aR,6aS,8aR,10aS)-3-(4-methoxyphenyl)-8,8,10a-trimethyl-6-methylene-3a,5,6,6a,7,8,8a,9,10,10a-decahydro-4H-cyclobuta [5,6]cyclonona [1,2-d]isoxazole] |  | > 12.8 | < 50 | < 50 | < 50 | < 50 | 27 ± 2.4 | < 50 |  |  |  |
| CC1=CCCC2(CC(c3cc(Br)ccc3O)=NO2)C2CC(C)(C)C2CC1 [Compound 18a, 4-Bromo-2-((1S,2R,9R,E)-6,10,10-trimethyl-4′H-spiro[bicyclo [7.2.0]undecane-2,5′-isoxazol]-5-en-3′-yl)phenol] |  | 4.78 ± 0.6 | > 50 | > 50 | > 50 | > 50 | 25.1 ± 1.8 |  |  |  |  |
| C=C1CC[C@H]2C(c3cc(Br)ccc3O)=NO[C@]2(C)CC[C@@H]2[C@@H]1CC2(C)C [Compound 18b, 4-bromo-2-((3aS,6aS,8aR,10aR)-8,8,10a-trimethyl-6-methylene-3a,5,6,6a,7,8,8a,9,10,10a-decahydro-4H-cyclobuta [5,6]cyclonona [1,2-d]isoxazol-3-yl)phenol] |  |  | 50 to 100 | > 50 | > 50 | 50 to 100 |  |  | 50 to 100 | 50 to 100 |  |
| C/C1=C\CC[C@@]2(CC(Br)=NO2)[C@H]2CC(C)(C)[C@@H]2CC1 [Compound 19a, (1S,2R,9R,E)-3′-Bromo-6,10,10-trimethyl-4′H-spiro[bicyclo [7.2.0]undecane-2,5′-isoxazol]-5-ene] |  | > 12.3 | > 50 | > 50 | > 50 | > 50 | 19.6 ± 1.1 |  |  |  |  |
| C=C1CC[C@H]2C(Br)=NO[C@]2(C)CC[C@@H]2[C@@H]1CC2(C)C [Compound 19b, (3aR,6aS,8aR,10aR)-3-bromo-8,8,10a-trimethyl-6-methylene-3a,5,6,6a,7,8,8a,9,10,10a-decahydro-4H-cyclobuta [5,6]cyclonona [1,2-d]isoxazole] |  | > 33.7 |  |  |  |  | 44.2 ± 3.6 |  |  |  |  |
| C=C1CC[C@@H]2C(C)=NN(c3ccccc3)[C@@]2(C)CC[C@@H]2[C@@H]1CC2(C)C [Compound 21b, (3aS,6aS,8aR,10aS)-3,8,8,10a-tetramethyl-6-methylene-1-phenyl-1,3a,4,5,6,6a,7,8,8a,9,10,10a-dodecahydrocyclobuta [6,7]cyclonona [1,2-c]pyrazole] |  | > 297 | > 50 | > 50 | > 50 | > 50 | 375 ± 15.6 |  |  |  |  |
| C/C1=C\CC[C@@]2(CC(c3ccccc3)=NN2c2ccccc2)[C@H]2CC(C)(C)[C@@H]2CC1 [Compound 22a, (1S,2R,9R,E)-6,10,10-Trimethyl-2′,5′-diphenyl-2′,4′-dihydrospiro[bicyclo [7.2.0]undecane-2,3′-pyrazol]-5-ene] |  | 72.7 ± 9.2 | 50 to 100 | > 50 | > 50 | 50 to 100 | 170 ± 12.1 |  | 50 to 100 | 50 to 100 |  |
| C=C1CC[C@H]2C(c3ccccc3)=NN(c3ccccc3)[C@]2(C)CC[C@@H]2[C@@H]1CC2(C)C [Compound 22b, (3aR,6aS,8aR,10aR)-8,8,10a-trimethyl-6-methylene-1,3-diphenyl-1,3a,4,5,6,6a,7,8,8a,9,10,10a-dodecahydrocyclobuta [6,7]cyclonona [1,2-c]pyrazole] |  | > 9.28 | < 50 | > 50 | > 50 | < 50 | 25.1 ± 1.6 |  | 50 to 100 | 50 to 100 |  |
| C=C1CC[C@H]2C(c3c(OC)cccc3OC)=NN(c3c(Cl)cc(Cl)cc3Cl)[C@]2(C)CC[C@@H]2[C@@H]1CC2(C)C [Compound 23b, (3aR,6aS,8aR,10aR)-3-(2,6-dimethoxyphenyl)-8,8,10a-trimethyl-6-methylene-1-(2,4,6-trichlorophenyl)-1,3a,4,5,6,6a,7,8,8a,9,10,10a-dodecahydrocyclobuta [6,7]cyclonona [1,2-c]pyrazole] |  | 178 ± 20.1 | > 50 | > 50 | > 50 | > 50 | > 535 |  |  |  |  |
| COc1ccc(C2=NO[C@]3(CC[C@@H]4C(c5ccc(OC)cc5)=NO[C@@]4(C)CC[C@@H]4[C@@H]3CC4(C)C)C2)cc1 [Compound 26, (3aR,6R,6aS,8aR,10aS)-3,3′-Bis(4-methoxyphenyl)-8,8,10a-trimethyl-3a,4,5,6a,7,8,8a,9,10,10a-decahydro-4′H-spiro[cyclobuta [5,6]cyclonona [1,2-d]isoxazole-6,5′-isoxazole]] |  | > 652 | > 50 | > 50 | > 50 | > 50 | > 652 |  |  |  |  |
| CC1(C)C[C@H]2[C@H]1CC[C@@]1(C)ON=C(Br)[C@@H]1CC[C@@]21CC(Br)=NO1 [Compound 28, (3aR,6R,6aS,8aR,10aR)-3,3′-Dibromo-8,8,10a-trimethyl-3a,4,5,6a,7,8,8a,9,10,10a-decahydro-4′H-spiro[cyclobuta [5,6]cyclonona [1,2-d]isoxazole-6,5′-isoxazole]] |  | > 8.7 | 50 to 100 | > 50 | > 50 | 50 to 100 | 13.8 ± 1.2 |  | 50 to 100 | 50 to 100 |  |
| CC1(C)C[C@H]2[C@H]1CC[C@]1(C)[C@@H](CC[C@@]23CC(c2ccccc2)=NN3c2ccccc2)C(c2ccccc2)=NN1c1ccccc1 [Compound 29, (3aR,6R,6aS,8aR,10aR)-8,8,10a-trimethyl-1,2′,3,5′-tetraphenyl-2′,3a,4,4′,5,6a,7,8,8a,9,10,10a-Dodecahydro-1H-spiro[cyclobuta [6,7]cyclonona [1,2-c]pyrazole-6,3′-pyrazole]] |  | 102 ± 12.6 | > 50 | > 50 | > 50 | > 50 | > 506 |  |  |  |  |
| COc1cccc(OC)c1C1=NN(c2c(Cl)cc(Cl)cc2Cl)[C@]2(CC[C@H]3C(c4c(OC)cccc4OC)=NN(c4c(Cl)cc(Cl)cc4Cl)[C@]3(C)CC[C@@H]3[C@@H]2CC3(C)C)C1 [Compound 30, (3aR,6R,6aS,8aR,10aR)-3,5′-Bis(2,6-dimethoxyphenyl)-8,8,10a-trimethyl-1,2′-bis(2,4,6-trichlorophenyl)-2′,3a,4,4′,5,6a,7,8,8a,9,10,10a-dodecahydro-1H-spiro[cyclobuta [6,7]cyclonona [1,2-c]pyrazole-6,3′-pyrazole]] |  | 71 ± 8.8 | > 50 | > 50 | > 50 | > 50 | > 330 |  |  |  |  |
| CC(N)C1C[C@@H]2CC[C@H]1C2 (stereo partly shown) [Deitiforin, reference compound] | 1270 ± 82 |  |  |  |  |  |  |  |  |  |  |
| NC(=O)c1ncn([C@@H]2O[C@H](CO)[C@@H](O)[C@H]2O)n1 [Ribavirin, reference compound] | > 2000 | 25 |  |  |  |  |  |  |  |  |  |
| CC(N)C12CC3CC(CC(C3)C1)C2 (stereo not shown) [Rimantadine, reference compound] | 335 ± 27 |  |  |  |  |  |  |  |  |  | 67 ± 4.9 |
